Measured values from patent US20040110727A1, “Aldehyde-releasing compounds” (priority 2000, published 2004).
Read-outs that look alike come from different tables or passages of the source.

Legend:
[1] = tested on: genomic DNA of IMR-32 cells; conditions: for adduct levels compared to Adriamycin alone / relative effectiveness in activating adduct formation: 4 μM [14C] Adriamycin simultaneously with 100 μM aldehyde-releasing compound
Experimental: IMR-32 cells were seeded into 3.5 cm petri dishes at a density of 7.5×10^5 cells/dish 24 hr prior to exposure to 41M [^14C]-Adriamycin for 4 hr. In other treatments 100 μM AN-9 was added at varying times: 2 hr prior to Adriamycin addition (−2); simultaneously (O); and 2 hr after Adriamycin (2). Cells were harvested, and the genomic DNA was isolated. Samples were then extracted twice with phenol and once with chloroform, and DNA was selectively precipitated from RNA by ammonium acetate precipitation. DNA pellets were resuspended in 100 μL TE buffer, and the concentration determined spectrophotometically at 260 nm. Aliquots of the genomic DNA (50 μL) were each added to 1 mL of Optiphase Hisafe scintillation cocktail, and the incorporation of [^14C]-labelled drug into the DNA was monitored using a Wallac 1410 Liquid Scintillation Counter.
IMR-32 cells were exposed to 6 μM [^14C]-Adriamycin alone (Adr) for 4 hr, or together with 125 μl AN-9 at varying times: 16 hr prior (−16), 2 hr prior (−2), simultaneously (0), and 2 hr after Adriamycin addition (2). […] Genomic DNA was extracted from the cells, and incorporation of radiolabelled drug was determined by scintillation counting to determine the level of [^14C] adducts per 10 kb.
Therefore, IMR-32 cells were treated with 4 μM [^14C] Adriamycin and were simultaneously treated with 100 μM of selected aldehyde-releasing compound. Cells were harvested, genomic DNA was extracted and scintillation analyses were performed as described above.
To test whether a greater fraction of Adriamycin can be utilized for adduct formation when the amount of available formaldehyde is increased, the concentration dependence of AN-9 was investigated. IMR-32 cells were treated with [^14C] Adriamycin at a constant concentration of 4 μM. AN-9 was added 2 hr after Adriamycin at concentrations ranging from 4 μM (1:1) to 500 μM (1:125), and the treatment continued for a further 2 hr. Cells were harvested, DNA was extracted and samples were analysed for incorporation of [^14C].
Adducts (lesions/10 kb) were determined by incubating IMR-32 cells in the presence of 2 μM [^14C]Adriamycin for 2 hr. followed by an additional 2 hr in the presence or absence of 100 μM AN-9. Semi-carbazide addition was at the same time as Adriamycin (ie 2 hr before AN-9). However, values in parentheses indicate that semi-carbazide addition was at the same time as AN-9 treatment (ie 2 hr after Adriamycin).
Adriamycin for 4 hr. These were simultaneously incubated with the indicated aldehyde-releasing compound at a final concentration of 100 μM. Samples were harvested as indicated previously and DNA was assessed for incorporation of radioactively labelled Adriamycin.

[2] = tested on: mitochondrial genome and DHFR gene of IMR-32 cells; experiment: Gene-specific Southern hybridisation assay of DNA adducts / virtual crosslinks; assay type: cell-based, human; conditions: for level of DNA adducts (percentage of double stranded DNA): IMR-32, Adriamycin alone, or Adriamycin with 25-fold excess of AN-9 (added 2 hr after or 2 hr before)
Experimental: We sought to investigate the level of DNA adducts formed under various treatment conditions, since we speculated that the peculiar effectiveness of the Adriamycin/AN-9 combination might be due to increased levels of DNA damage in the form of DNA adducts. IMR-32 human neuroblastoma cells (A and B) and MCF-7 human breast adenocarcinoma cells (C and D) were treated with Adriamycin for 2 hr ([…] as shown) followed by a further 2 hr incubation with a 25-fold excess of AN-9 (▪), or treated with AN-9 for 2 hr followed by a further 4 hr incubation with Adriamycin (□). Genomic DNA was isolated using mild conditions (Cutts et al., 2001) and subjected to gene-specific Southern hybridisation analysis. For detection of the mitochondrial genome, DNA was restriction digested with BamHI, and unreacted or intercalated drug was removed by phenol/chloroform extraction and ethanol precipitation. Samples were resuspended in 60% formamide and heat denatured at 60° C. for 5 min. Samples were resolved electrophoretically through 0.8% agarose, transferred to nylon membranes and probed with mitochondrial RNA. The percentage of double stranded DNA was calculated by phosphorimage analysis; this correlates with adduct formation in the mitochondrial genome (A and C), since the adducts behave functionally as virtual interstrand crosslinks (Zeman et al., 1998; Cullinane et al., 2000). For detection of the DHFR gene, DNA was digested with HindIII and processed as described above; however, randomly primed DHFR DNA was used as the probe for Southern analysis (B and D). Data were derived from each of two separate blots of two biological experiments, and the values are represented as the mean±SE. […] This provides a biochemical basis for the synergistic/antagonistic cytotoxicity relationship.
It was known that the formation of Adriamycin adducts was highly time-dependent. To confirm that the adducts behave as classical Adriamycin adducts, and also to investigate the optimal conditions for adduct formation, a time course study was initiated. IMR-32 cells were treated with a combination of 4 μM Adriamycin and 100 μM AN-9 for 0-8 hr as described above. Phosphorimage analysis was used to quantitate the time-dependent formation of adducts in the mitochondrial genome (A) and DHFR gene (B).
In order to gain some understanding as to why synergy was greatest when AN-9 was added at the same time as, or after, Adriamycin, a time course of addition of AN-9 was studied. IMR-32 cells were exposed to 4 μM Adriamycin for 4 hr. […] Adduct/crosslinking levels are shown in FIG. 3 for both mitochondrial (A) and nuclear (B) DNA, using probes for mtDNA and the DHFR gene respectively. Phosphorimage analysis was used to quantitate the fraction of DS DNA, a measure of adduct formation, for each treatment condition. Adduct formation fluctuated greatly, and depended on a relatively small time frame within which AN-9 was added to cells. […] This enabled us to predict that if AN-9 was added shortly after Adriamycin in cytotoxicity assays, within say approximately 2 hr, then the Combination Index obtained would be even better than when the drugs were added simultaneously.
IMR-32 cells were exposed to Adriamycin (6 μm) for 4 hr, and AN-9 (125 μM) was added at varying times from 24 hr prior to Adriamycin addition (−24) to 2 hr after Adriamycin. Genomic DNA was extracted from cells and then processed for Southern analysis. Phosphorimage analysis was used for quantitation of the adducts in mtDNA (A) and the DHFR gene (B), and the results are shown in FIG. 4.

[3] = tested on: mitochondrial genome and DHFR gene of MCF-7 cells; experiment: as above; assay type: cell-based, human; conditions: Adriamycin alone, or Adriamycin with 25-fold excess of AN-9 (added 2 hr after or 2 hr before)
Experimental: We sought to investigate the level of DNA adducts formed under various treatment conditions, since we speculated that the peculiar effectiveness of the Adriamycin/AN-9 combination might be due to increased levels of DNA damage in the form of DNA adducts. IMR-32 human neuroblastoma cells (A and B) and MCF-7 human breast adenocarcinoma cells (C and D) were treated with Adriamycin for 2 hr ([…] as shown) followed by a further 2 hr incubation with a 25-fold excess of AN-9 (▪), or treated with AN-9 for 2 hr followed by a further 4 hr incubation with Adriamycin (□). Genomic DNA was isolated using mild conditions (Cutts et al., 2001) and subjected to gene-specific Southern hybridisation analysis. For detection of the mitochondrial genome, DNA was restriction digested with BamHI, and unreacted or intercalated drug was removed by phenol/chloroform extraction and ethanol precipitation. Samples were resuspended in 60% formamide and heat denatured at 60° C. for 5 min. Samples were resolved electrophoretically through 0.8% agarose, transferred to nylon membranes and probed with mitochondrial RNA. The percentage of double stranded DNA was calculated by phosphorimage analysis; this correlates with adduct formation in the mitochondrial genome (A and C), since the adducts behave functionally as virtual interstrand crosslinks (Zeman et al., 1998; Cullinane et al., 2000). […]

HL-60 cells = conditions: cited from earlier work
IMR-32 cells = experiment: Cell viability assay, relative survival with semi-carbazide; assay type: cell-based, human; conditions: IC50 relative to Adriamycin alone; 72 hr; presence or absence of 50 μM AN-9; no semi-carbazide
Experimental: To obtain data representing relative survival, cells were seeded at a density of 1×10^4 per well and exposed to increasing concentrations of Adriamycin in the presence or absence of 50 μM AN-9 and/or semi-carbazide (0.25, 0.5 or 1.0 mM as indicated) for 72 hr. IC50 values for various combinations are shown as relative survival compared to Adriamycin alone. […] Overall, the critical role of formaldehyde was confirmed by reversal of formaldehyde-mediated effects by semi-carbazide, which reduced adduct formation and also abolished the cytotoxicity resulting from the interaction of AN-9 with Adriamycin.

DNA = conditions: cited from earlier work
[4] = 4 μM [14C] Adriamycin, 500 μM AN-9 (1:125) added 2 hr after
[5] = 6 μM [14C]-Adriamycin 4 hr, AN-9 16 hr prior to Adriamycin

CCCC(=O)OCOP(=O)(OCC)OCC [AN-7, Butyroyloxymethyldiethyl Phosphate]
adduct levels compared to Adriamycin alone [1]: enhanced adduct levels | relative effectiveness in activating adduct formation [1]: good activity

CCCC(=O)OCOC(=O)C(C)(C)C [AN-9, Pivaloyloxymethyl Butyrate]
adduct/crosslinking levels ([2]; 4 μM Adriamycin 4 hr, 100 μM AN-9 added shortly after Adriamycin, compared with simultaneous addition): greatly enhanced levels of adducts | enhancement of adduct levels ([2]; Adriamycin (6 μm) 4 hr, AN-9 (125 μM) administered 5-24 hr prior to Adriamycin): no enhancement of adduct levels | level of DNA adducts (percentage of double stranded DNA) [2]: dramatic increases in the level of DNA adducts | effect on the ability of barminomycin to induce DNA crosslinks ([2]; barminomycin 0-20 nM, 12,500-fold excess of AN-9, added after or 2 hr before barminomycin): no effect | level of DNA adducts (percentage of double stranded DNA) [3]: dramatic increases in the level of DNA adducts | adduct levels compared to Adriamycin alone [1]: enhanced adduct levels | relative effectiveness in activating adduct formation [1]: most effective | total Adriamycin added to cells incorporated into DNA adducts ([1]; 4 μM [14C] Adriamycin, 500 μM AN-9): approximately 5% | adduct levels relative to the 1:20-1:25 ratio [1, 4]: approximately 10 fold | potentiation of Adriamycin adduct levels [1, 4]: approximately 100 fold | Adriamycin adducts ([1]; 4 μM [14C] Adriamycin, AN-9 added 2 hr after, further 2 hr, Adriamycin:AN-9 1:20-1:25): 10 adducts per 10 kb | enhancement of adduct formation ([1]; 4 μM [14C] Adriamycin, AN-9 added 2 hr after, Adriamycin:AN9 1:1-1:5): poor | levels of Adriamycin adducts [1, 5]: 1.7 /10 kb | loss of adducts compared to Adriamycin alone [1, 5]: 40% | enhancement of adducts compared to Adriamycin alone ([1]; 6 μM [14C]-Adriamycin 4 hr, AN-9 added 2 hr after Adriamycin): approximately 20 fold | level of Adriamycin adducts ([1]; 41M [14C]-Adriamycin 4 hr, 100 μM AN-9 2 hr after Adriamycin): ~24 per 10 kb | level of Adriamycin adducts ([1]; 41M [14C]-Adriamycin 4 hr, 100 μM AN-9 2 hr prior to Adriamycin): ~3.5 per 10 kb | potentiation of the level of Adriamycin adducts ([1]; 41M [14C]-Adriamycin 4 hr, 100 μM AN-9, vs Adriamycin alone): up to 15 fold | level of Adriamycin adducts ([1]; 41M [14C]-Adriamycin 4 hr, 100 μM AN-9 simultaneously): approximately 12 per 10 kb | histone acetylation (HL-60 cells): induce histone acetylation | time after exposure at which basal level of acetylation is re-established (HL-60 cells): 6 h

CCCC(=O)OC(C)OP(=O)(OCC)OCC (stereo not drawn) [AN-88, 1-Butyroyloxyethyldiethyl Phosphate]
adduct levels compared to Adriamycin alone [1]: reinforced the concept that it was the released formaldehyde which was solely responsible for increased adduct formation

CCC(=O)OC(C)OC(=O)CC [AN-188, Ethylidene Dipropionate]
adduct levels compared to Adriamycin alone [1]: reinforced the concept that it was the released formaldehyde which was solely responsible for increased adduct formation

COc1cccc2c1C(=O)c1c(O)c3c(c(O)c1C2=O)C[C@@](O)(C(=O)CO)C[C@@H]3O[C@H]1C[C@H](N)[C@H](O)[C@H](C)O1 [Adriamycin, reference compound]
level of DNA adducts (percentage of double stranded DNA) [2]: no adducts were detected | level of DNA adducts (percentage of double stranded DNA) [3]: no adducts were detected | Relative survival (IMR-32 cells): 1.00 ± 0.12 | levels of Adriamycin adducts ([1]; 6 μM [14C]-Adriamycin alone 4 hr): 2.8 /10 kb | level of Adriamycin adducts ([1]; 41M [14C]-Adriamycin 4 hr, absence of AN-9): approximately 1.5 per 10 kb | half-life of Adriamycin adducts (DNA): 5 to 40 h

CCCC(=O)O [Butyric acid, reference compound]
increase in Adriamycin adduct levels ([1]; 6 μM [14C]-Adriamycin 4 hr, sodium butyrate (1 mM) 16 hr prior, 2 hr prior, simultaneously or 2 hr after): no significant increases in adduct levels

C1N2CN3CN1CN(C2)C3 [hexamethylenetetramine, reference compound]
facilitation of Adriamycin adduct formation ([2]; 15 μM Adriamycin, 4 hr later 0-2.5 mM hexamethylenetetramine, harvested after 8 hr): not as effective as AN-9
